Publication PMC7156458, “Synthetic biology based construction of biological activity-related library of fungal decalin-containing diterpenoid pyrones” (Nature Communications, 2020)

Target: Aβ42 (Homo sapiens, UniProt P05067)
Assay: Th-T (thioflavin-T) assay of Aβ42 aggregation
Assay type: biochemical
Conditions: for Th-T fluorescence of Aβ42 with compound, mean of three wells (Fig. 7a source data): concentration 50, unit not given

Aβ42, sequence (P05067 672-713): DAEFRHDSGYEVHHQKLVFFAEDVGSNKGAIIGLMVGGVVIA

C=C1CCC2C(C)(CCC=C(C)C)C(O)CCC2(C)C1Cc1c(OC)oc(CO)c(C(=O)OC)c1=O (stereo not drawn) [Compound 13]
Th-T fluorescence of Aβ42 with compound, mean of three wells (Fig. 7a source data) (time-course reading M143): 0.478 | Th-T fluorescence of Aβ42 with compound, mean of three wells (Fig. 7a source data) (time-course reading M144): 0.478 | Th-T fluorescence of Aβ42 with compound, mean of three wells (Fig. 7a source data) (time-course reading M145): 0.4736 | Th-T fluorescence of Aβ42 (sheet Fig. 7a), mean of three wells (head suffix _10 (concentration 10), reading M63): 1.556 | Th-T fluorescence of Aβ42 (sheet Fig. 7a), mean of three wells (head suffix _10 (concentration 10), reading M64): 1.557 | Th-T fluorescence of Aβ42 (sheet Fig. 7a), mean of three wells (head suffix _10 (concentration 10), reading M65): 1.551 | Th-T fluorescence of Aβ42 (sheet Fig. 7a), mean of three wells (head suffix _10 (concentration 10), reading M66): 1.553 | Th-T fluorescence of Aβ42 (sheet Fig. 7a), mean of three wells (head suffix _10 (concentration 10), reading M67): 1.558 | Th-T fluorescence of Aβ42 (sheet Fig. 7a), mean of three wells (head suffix _10 (concentration 10), reading M68): 1.564 | Th-T fluorescence of Aβ42 (sheet Fig. 7a), mean of three wells (head suffix _10 (concentration 10), reading M69): 1.56 | Th-T fluorescence of Aβ42 (sheet Fig. 7a), mean of three wells (head suffix _10 (concentration 10), reading M70): 1.554 | Th-T fluorescence of Aβ42 (sheet Fig. 7a), mean of three wells (head suffix _10 (concentration 10), reading M71): 1.549 | Th-T fluorescence of Aβ42 (sheet Fig. 7a), mean of three wells (head suffix _10 (concentration 10), reading M72): 1.561 | Th-T fluorescence of Aβ42 (sheet Fig. 7a), mean of three wells (head suffix _10 (concentration 10), reading M73): 1.566 | Th-T fluorescence of Aβ42 (sheet Fig. 7a), mean of three wells (head suffix _10 (concentration 10), reading M74): 1.559 | Th-T fluorescence of Aβ42 (sheet Fig. 7a), mean of three wells (head suffix _10 (concentration 10), reading M75): 1.561 | Th-T fluorescence of Aβ42 (sheet Fig. 7a), mean of three wells (head suffix _10 (concentration 10), reading M76): 1.555 | Th-T fluorescence of Aβ42 (sheet Fig. 7a), mean of three wells (head suffix _10 (concentration 10), reading M77): 1.558 | Th-T fluorescence of Aβ42 (sheet Fig. 7a), mean of three wells (head suffix _10 (concentration 10), reading M78): 1.561 | Th-T fluorescence of Aβ42 (sheet Fig. 7a), mean of three wells (head suffix _10 (concentration 10), reading M79): 1.5579 | Th-T fluorescence of Aβ42 (sheet Fig. 7a), mean of three wells (head suffix _10 (concentration 10), reading M80): 1.555 | Th-T fluorescence of Aβ42 (sheet Fig. 7a), mean of three wells (head suffix _10 (concentration 10), reading M81): 1.559 | Th-T fluorescence of Aβ42 (sheet Fig. 7a), mean of three wells (head suffix _10 (concentration 10), reading M82): 1.556 | Th-T fluorescence of Aβ42 (sheet Fig. 7a), mean of three wells (head suffix _10 (concentration 10), reading M83): 1.5605 | Th-T fluorescence of Aβ42 (sheet Fig. 7a), mean of three wells (head suffix _10 (concentration 10), reading M84): 1.551 | Th-T fluorescence of Aβ42 (sheet Fig. 7a), mean of three wells (head suffix _20 (concentration 20), reading M63): 1.031 | Th-T fluorescence of Aβ42 (sheet Fig. 7a), mean of three wells (head suffix _20 (concentration 20), reading M64): 1.035 | Th-T fluorescence of Aβ42 (sheet Fig. 7a), mean of three wells (head suffix _20 (concentration 20), reading M65): 1.042 | Th-T fluorescence of Aβ42 (sheet Fig. 7a), mean of three wells (head suffix _20 (concentration 20), reading M66): 1.05 | Th-T fluorescence of Aβ42 (sheet Fig. 7a), mean of three wells (head suffix _20 (concentration 20), reading M67): 1.057 | Th-T fluorescence of Aβ42 (sheet Fig. 7a), mean of three wells (head suffix _20 (concentration 20), reading M68): 1.061 | Th-T fluorescence of Aβ42 (sheet Fig. 7a), mean of three wells (head suffix _20 (concentration 20), reading M69): 1.053 | Th-T fluorescence of Aβ42 (sheet Fig. 7a), mean of three wells (head suffix _20 (concentration 20), reading M70): 1.058 | Th-T fluorescence of Aβ42 (sheet Fig. 7a), mean of three wells (head suffix _20 (concentration 20), reading M71): 1.058 | Th-T fluorescence of Aβ42 (sheet Fig. 7a), mean of three wells (head suffix _20 (concentration 20), reading M72): 1.061 | Th-T fluorescence of Aβ42 (sheet Fig. 7a), mean of three wells (head suffix _20 (concentration 20), reading M73): 1.063 | Th-T fluorescence of Aβ42 (sheet Fig. 7a), mean of three wells (head suffix _20 (concentration 20), reading M74): 1.057 | Th-T fluorescence of Aβ42 (sheet Fig. 7a), mean of three wells (head suffix _20 (concentration 20), reading M75): 1.056 | Th-T fluorescence of Aβ42 (sheet Fig. 7a), mean of three wells (head suffix _20 (concentration 20), reading M76): 1.058 | Th-T fluorescence of Aβ42 (sheet Fig. 7a), mean of three wells (head suffix _20 (concentration 20), reading M77): 1.059 | Th-T fluorescence of Aβ42 (sheet Fig. 7a), mean of three wells (head suffix _20 (concentration 20), reading M78): 1.0603 | Th-T fluorescence of Aβ42 (sheet Fig. 7a), mean of three wells (head suffix _20 (concentration 20), reading M79): 1.056 | Th-T fluorescence of Aβ42 (sheet Fig. 7a), mean of three wells (head suffix _20 (concentration 20), reading M80): 1.0496 | Th-T fluorescence of Aβ42 (sheet Fig. 7a), mean of three wells (head suffix _20 (concentration 20), reading M81): 1.051 | Th-T fluorescence of Aβ42 (sheet Fig. 7a), mean of three wells (head suffix _20 (concentration 20), reading M82): 1.061 | Th-T fluorescence of Aβ42 (sheet Fig. 7a), mean of three wells (head suffix _20 (concentration 20), reading M83): 1.058 | Th-T fluorescence of Aβ42 (sheet Fig. 7a), mean of three wells (head suffix _20 (concentration 20), reading M84): 1.053 | Th-T fluorescence of Aβ42 (sheet Fig. 7a), mean of three wells (head suffix _50 (concentration 50), reading M63): 0.4695 | Th-T fluorescence of Aβ42 (sheet Fig. 7a), mean of three wells (head suffix _50 (concentration 50), reading M64): 0.467 | Th-T fluorescence of Aβ42 (sheet Fig. 7a), mean of three wells (head suffix _50 (concentration 50), reading M65): 0.4693 | Th-T fluorescence of Aβ42 (sheet Fig. 7a), mean of three wells (head suffix _50 (concentration 50), reading M66): 0.4724 | Th-T fluorescence of Aβ42 (sheet Fig. 7a), mean of three wells (head suffix _50 (concentration 50), reading M67): 0.4748 | Th-T fluorescence of Aβ42 (sheet Fig. 7a), mean of three wells (head suffix _50 (concentration 50), reading M68): 0.4706 | Th-T fluorescence of Aβ42 (sheet Fig. 7a), mean of three wells (head suffix _50 (concentration 50), reading M69): 0.4713 | Th-T fluorescence of Aβ42 (sheet Fig. 7a), mean of three wells (head suffix _50 (concentration 50), reading M70): 0.4681 | Th-T fluorescence of Aβ42 (sheet Fig. 7a), mean of three wells (head suffix _50 (concentration 50), reading M71): 0.4721 | Th-T fluorescence of Aβ42 (sheet Fig. 7a), mean of three wells (head suffix _50 (concentration 50), reading M72): 0.4741
